# Results as given in patent US12559523B2, “Compositions comprising chemerin analogs and methods of use” (OKYO Pharma Limited, priority 2019, dated 2026).
# Non-standard residues stand in square brackets, D forms with d. Residues, ends and D or L forms follow the SMILES beside them. *: point of attachment. PEG8 = NCCOCCOCCOCCOCCOCCOCCOCCOCCC(=O)O; Palmitoyl = CCCCCCCCCCCCCCCC(=O)*; Tic = O=C(O)[C@@H]1Cc2ccccc2CN1; Nle = CCCC[C@H](N)C(=O)O; Nva = CCC[C@H](N)C(=O)O
# What was measured:
# CD4+ T cells = assay: Immunohistochemistry count of CD4+ T cells in conjunctival epithelium, dry eye; format: in vivo, mouse; details: FIG. 3 and 5
# Method: In FIGS. 3 and 5, immunohistochemistry is used to detect CD4+ T cells. Enucleated mouse eyes with intact conjunctiva were suspended in optimal cutting temperature (OCT) compound and flash frozen in liquid nitrogen. Immunohistochemistry was performed on six micrometer frozen sections to detect and count the number of cells in conjunctival epithelium that stained positively for CD4, a biotinylated secondary antibody and NovaRED peroxidase. Positively stained cells were counted in the conjunctiva using Nikon imaging software.
# [1] = tested on: conjunctival goblet cells (GC); assay: Conjunctival goblet cell density measurement, dry eye; format: in vivo, mouse; details: superior and inferior conjunctiva; FIG. 4 and 6
# Method: In FIGS. 4 and 6, conjunctival goblet cells (GC) measurement is performed as follows. Enucleated mouse eyes with intact conjunctiva were fixed in 10% formalin and embedded in paraffin. Six-micrometer sections were stained with periodic acid-Schiff reagent.
smiles,measurement,setting,value
"CCCCCCCCCCCCCCCC(=O)NCCOCCOCCOCCOCCOCCOCCOCCOCCC(=O)N[C@@H](CCC)C(=O)NCC(=O)N[C@H](Cc1ccc(O)cc1)C(=O)N[C@@H](Cc1ccccc1)C(=O)N[C@@H](CCCC)C(=O)N1CCC[C@H]1C(=O)N[C@H](CO)C(=O)N[C@@H](CCC(N)=O)C(=O)N[C@@H](Cc1ccccc1)C(=O)N[C@H](C)C(=O)N1Cc2ccccc2C[C@H]1C(=O)N[C@H](C)C(=O)O [OK-113, NorV-Gly-dTyr-Phe-Nle-Pro-dSer-Gln-Phe-dAla-Tic-dAla] ({Palmitoyl-PEG8}-[Nva]G[dY]F[Nle]P[dS]QF[dA][Tic][dA]-OH)",dry eye induced CD4+ T-cells infiltration,CD4+ T cells,significantly reduced
same,dry eye induced loss of goblet cell density,[1],normalized
"CCCCCCCCCCCCCCCC(=O)NCCOCCOCCOCCOCCOCCOCCOCCOCCC(=O)NCC(=O)NCC(=O)N[C@H](Cc1ccc(O)cc1)C(=O)N[C@@H](Cc1ccccc1)C(=O)N[C@@H](CC(C)C)C(=O)N1CCC[C@H]1C(=O)N[C@H](CO)C(=O)N[C@@H](CCC(N)=O)C(=O)N[C@@H](Cc1ccccc1)C(=O)N[C@H](C)C(=O)N1Cc2ccccc2C[C@H]1C(=O)N[C@@H](CO)C(=O)O [OK-101, Gly-Gly-dTyr-Phe-Leu-Pro-dSer-Gln-Phe-dAla-Tic-Ser] ({Palmitoyl-PEG8}-GG[dY]FLP[dS]QF[dA][Tic]S-OH)",dry eye induced CD4+ T-cells infiltration,CD4+ T cells,significantly reduced
same,dry eye induced loss of goblet cell density,[1],normalized
